The record followed here is patent publication US9902725B2, “Heterocyclic derivatives as RORgamma modulators” (GENFIT, priority 2014, dated 2018).

Some results are limits rather than exact numbers.

This assay addresses T1, RORγt ligand-binding domain (RORγt-LBD) (Homo sapiens, UniProt P51449).
T1 construct: 20 nM recombinantly expressed RORγ-LBD fused to GST
T1 sequence (P51449 269-508 limits assumed): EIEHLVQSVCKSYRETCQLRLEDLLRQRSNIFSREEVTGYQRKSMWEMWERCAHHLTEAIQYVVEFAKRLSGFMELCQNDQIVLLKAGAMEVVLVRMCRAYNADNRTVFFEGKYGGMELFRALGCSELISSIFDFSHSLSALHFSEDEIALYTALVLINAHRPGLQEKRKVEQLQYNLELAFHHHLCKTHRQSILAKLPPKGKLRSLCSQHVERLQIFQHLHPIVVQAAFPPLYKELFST
The assay can be described thus: Time-resolved FRET (TR-FRET) RORγt coactivator assay. The format is biochemical. Conditions: GST-RORγ-LBD, biotinylated RIP140 peptide, coactivator displacement. From the text:
Time-resolved FRET (TR-FRET) RORγt coactivator assay was used to identify RORγ modulator compounds with ligand-dependent coactivator displacement. The assay uses a d2-labeled anti-GST antibody, synthetic N-terminally biotinylated peptide which is derived from nuclear receptor coactivator protein RIP140, and a RORγt ligand-binding domain (RORγt-LBD) that is tagged with glutathione-S-transferase (GST). The influence of compounds on the RORγ-peptide interaction relies on the binding dependent energy transfer from a donor to an acceptor fluorophore attached to the binding partner of interest. […] For reduction of background from compound fluorescence, TR-FRET method makes use of generic fluorophore labels and time resolved detection.
The assays were done in a final volume of 20 μl in a 384 well plate in a CHAPS buffer (2 mM CHAPS; 1 mM DTT, 2 mM EDTA; 0.1% BSA), containing 20 nM recombinantly expressed RORγ-LBD fused to GST, 30 nM N-terminally biotinylated peptide, 1 nM streptavidin-terbium conjugate and 20 nM d2 labeled-anti-GST. Test compounds were diluted using 10 mM stock solution. The range of the final compound concentrations used in this test was from 0.3 nM to 30 μM (logarithmic scale). DMSO content of the samples was kept at 1%. The assay was equilibrated for 2 hours in the dark at room temperature in 384 well plates (Falcon). The signal was detected by an Ultra384 reader (TECAN). The results were visualized by plotting the ratio between the emitted light at 665 nm and 620 nm. A basal level of RORγ-peptide formation is observed in the absence of added compound. Compounds that promote coactivator displacement induce a concentration-dependent decrease in time-resolved fluorescent signal. Data were collected and analyzed using GraphPad Prism software (GraphPad Software V5.02, San Diego Calif. USA). IC50 in μM and Emax in % were reported for each compound.
For orientation: TR-FRET usually uses a lanthanide donor and a delayed reading to cut background.
The IC50 is the midpoint of a concentration-inhibition curve. `CN(C)Cc1ccccc1C(NC(=O)Cc1ccc2[nH]cc(CCC(=O)O)c2c1)c1ccccc1` (centres unmarked) [Cpd. 122, 3-(5-{[({2-[(dimethylamino)methyl]phenyl}(phenyl)methyl)carbamoyl]methyl}-1H-indol-3-yl)propanoic acid] came in with an IC50 below 1000 nM.

`CC(C)(C)OC(=O)CCc1c[nH]c2ccc(CC(=O)NC(c3ccccc3)c3ccccc3N3CCCC(O)C3)cc12` (centres unmarked) [Cpd. 123, tert-butyl 3-{5-[({[2-(3-hydroxypiperidin-1-yl)phenyl](phenyl)methyl}carbamoyl)methyl]-1H-indol-3-yl}propanoate] returned an IC50 of 1000 to 10000 nM.

`CC(C)(C)OC(=O)CCc1c[nH]c2ccc(CC(=O)NC(c3ccccc3)c3ccccc3N3CC=CCC3)cc12` (centres unmarked) [Cpd. 127, tert-butyl 3-{5-[({phenyl[2-(1,2,3,6-tetrahydropyridin-1-yl)phenyl]methyl}carbamoyl)methyl]-1H-indol-3-yl}propanoate] yielded an IC50 of 1000 to 10000 nM.

`CC(C)(C)OC(=O)CCc1c[nH]c2ccc(CC(=O)NC3(c4ccccc4N4CCCC4)CCCC3)cc12` [Cpd. 129, tert-butyl 3-{5-[({1-[2-(pyrrolidin-1-yl)phenyl]cyclopentyl}carbamoyl)methyl]-1H-indol-3-yl}propanoate] had an IC50 of 1000 to 10000 nM.

Take `Cc1ccc(C(NC(=O)Cc2ccc3[nH]cc(CCC(=O)OC(C)(C)C)c3c2)c2ncccn2)c(N2CCCCC2)c1` (centres unmarked) [Cpd. 131, tert-butyl 3-{5-[({[4-methyl-2-(piperidin-1-yl)phenyl](pyrimidin-2-yl)methyl}carbamoyl)methyl]-1H-indol-3-yl}propanoate]: the half-maximal inhibitory concentration (IC50) was below 1000 nM.

With `Cc1ccc(C(CC(C)C)NC(=O)Cc2ccc3[nH]cc(CCC(=O)OC(C)(C)C)c3c2)c(N(C)C)c1` (centres unmarked) [Cpd. 133, tert-butyl 3-{5-[({1-[2-(dimethylamino)-4-methylphenyl]-3-methylbutyl}carbamoyl)methyl]-1H-indol-3-yl}propanoate], the IC50 lay in the range of 1000 to 10000 nM.

In the case of `COc1ccc(N2CCCCC2)c(C(NC(=O)Cc2ccc3[nH]cc(CCC(=O)OC(C)(C)C)c3c2)c2ccccc2)c1` (centres unmarked) [Cpd. 135, tert-butyl 3-{5-[({[5-methoxy-2-(piperidin-1-yl)phenyl](phenyl)methyl}carbamoyl)methyl]-1H-indol-3-yl}propanoate], the half-inhibitory concentration (IC50) lay in the range of 1000 to 10000 nM.

With `Cc1ccc(C(NC(=O)Cc2ccc3[nH]cc(CCC(=O)OC(C)(C)C)c3c2)c2ccc(C)s2)c(N2CCCCC2)c1` (centres unmarked) [Cpd. 137, tert-butyl 3-{5-[({[4-methyl-2-(piperidin-1-yl)phenyl](5-methylthiophen-2-yl)methyl}carbamoyl)methyl]-1H-indol-3-yl}propanoate], the IC50 was 1000 to 10000 nM.

`Cc1ccc(C(NC(=O)Cc2ccc3[nH]cc(CCC(=O)OC(C)(C)C)c3c2)c2nccs2)c(N2CCCCC2)c1` (centres unmarked) [Cpd. 139, tert-butyl 3-{5-[({[4-methyl-2-(piperidin-1-yl)phenyl](1,3-thiazol-2-yl)methyl}carbamoyl)methyl]-1H-indol-3-yl}propanoate] returned an IC50 below 1000 nM.

In turn, `CC(C)(C)OC(=O)CCc1c[nH]c2ccc(CC(=O)NC3(c4ccccc4N4CCCCC4)CCCCC3)cc12` [Cpd. 143, tert-butyl 3-{5-[({1-[2-(piperidin-1-yl)phenyl]cyclohexyl}carbamoyl)methyl]-1H-indol-3-yl}propanoate] registered an IC50 of 1000 to 10000 nM.

For the compound `CCOc1ccc(C(NC(=O)Cc2ccc3[nH]cc(CCC(=O)OC(C)(C)C)c3c2)c2ccccc2)c(N2CCCCC2)c1` (centres unmarked) [Cpd. 149, tert-butyl 3-{5-[({[4-ethoxy-2-(piperidin-1-yl)phenyl](phenyl)methyl}carbamoyl)methyl]-1H-indol-3-yl}propanoate], the IC50 lay within 1000 to 10000 nM.

Consider `Cc1cccc(C(NC(=O)Cc2ccc3[nH]cc(CCC(=O)OC(C)(C)C)c3c2)c2ccccc2N2CCCCC2)c1` (centres unmarked) [Cpd. 157, tert-butyl 3-[5-({[(3-methylphenyl)[2-(piperidin-1-yl)phenyl]methyl]carbamoyl}methyl)-1H-indol-3-yl]propanoate], for which the IC50 is below 1000 nM.

In the case of `Cc1ccc(C(NC(=O)Cc2ccc3[nH]cc(CCC(=O)OC(C)(C)C)c3c2)c2ccccc2)c(N)c1` (centres unmarked) [Cpd. 183, tert-butyl 3-[5-({[(2-amino-4-methylphenyl)(phenyl)methyl]carbamoyl}methyl)-1H-indol-3-yl]propanoate], the IC50 lay in the range of 1000 to 10000 nM.

As to `Cc1ccc(C(C(=O)NCc2ccc3[nH]cc(CCC(=O)OC(C)(C)C)c3c2)c2ccccc2)c(N2CCCCC2)c1` (centres unmarked) [Cpd. 208, tert-butyl 3-[5-({2-[4-methyl-2-(piperidin-1-yl)phenyl]-2-phenylacetamido}methyl)-1H-indol-3-yl]propanoate], the IC50 is below 1000 nM.

On to `CCOC(=O)CCCC(=O)c1c[nH]c2ccc(CC(=O)NC(c3ccccc3)c3ccccc3N3CCCCC3)cc12` (centres unmarked) [Cpd. 214, ethyl 5-oxo-5-{5-[({phenyl[2-(piperidin-1-yl)phenyl]methyl}carbamoyl)methyl]-1H-indol-3-yl}pentanoate], for which the IC50 fell in the range of 1000 to 10000 nM.

In the case of `CCCCC(NC(=O)Cc1ccc2[nH]cc(CCC(=O)OC(C)(C)C)c2c1)c1ccccc1N(CC)CC` (centres unmarked) [Cpd. 218, tert-butyl 3-{5-[({1-[2-(diethylamino)phenyl]pentyl}carbamoyl)methyl]-1H-indol-3-yl}propanoate], the concentration for half-maximal inhibition (IC50) was 1000 to 10000 nM.

Consider `COC(=O)Cc1c[nH]c2ccc(CC(=O)NC(c3ccccc3)c3ccc(C)cc3Br)cc12` (centres unmarked) [Cpd. 220, methyl 2-[5-({[(2-bromo-4-methylphenyl)(phenyl)methyl]carbamoyl}methyl)-1H-indol-3-yl]acetate], for which the IC50 is below 1000 nM.

Take `COC(=O)Cc1c[nH]c2ccc(CC(=O)NC(c3ccc(C)s3)c3ccc(C)cc3C)cc12` (centres unmarked) [Cpd. 222, methyl 2-[5-({[(2,4-dimethylphenyl)(5-methylthiophen-2-yl)methyl]carbamoyl}methyl)-1H-indol-3-yl]acetate]: the IC50 was 1000 to 10000 nM.

In turn, `COC(=O)Cc1c[nH]c2ccc(CC(=O)NC(c3ccccc3)c3ccccc3N3CCOCC3)cc12` (centres unmarked) [Cpd. 224, methyl 2-{5-[({[2-(morpholin-4-yl)phenyl](phenyl)methyl}carbamoyl)methyl]-1H-indol-3-yl}acetate] displayed an IC50 below 1000 nM.

Turning to `Cc1ccc(C(NC(=O)Cc2ccc3[nH]cc(CCC(=O)OC(C)(C)C)c3c2)c2ncccn2)c(Br)c1` (centres unmarked) [Cpd. 226, tert-butyl 3-[5-({[(2-bromo-4-methylphenyl)(pyrimidin-2-yl)methyl]carbamoyl}methyl)-1H-indol-3-yl]propanoate], the half-inhibitory concentration (IC50) is below 1000 nM.

The compound `Cc1ccc(C(NC(=O)Cc2ccc3[nH]cc(CCC(=O)OC(C)(C)C)c3c2)c2ccccc2)c2[nH]ccc12` (centres unmarked) [Cpd. 228, tert-butyl 3-[5-({[(4-methyl-1H-indol-7-yl)(phenyl)methyl]carbamoyl}methyl)-1H-indol-3-yl]propanoate] registered a half-maximal inhibitory concentration (IC50) of 1000 to 10000 nM.

As to `CCCCC(NC(=O)Cc1ccc2[nH]cc(CCC(=O)OC(C)(C)C)c2c1)c1ccc(C)cc1N1CCCCC1` (centres unmarked) [Cpd. 230, tert-butyl 3-{5-[({1-[4-methyl-2-(piperidin-1-yl)phenyl]pentyl}carbamoyl)methyl]-1H-indol-3-yl}propanoate], the IC50 lay within 1000 to 10000 nM.

Take `CC(C)(C)OC(=O)CCc1c[nH]c2ccc(CC(=O)NC(c3ccccc3)c3ccccc3N3CCCC(F)(F)C3)cc12` (centres unmarked) [Cpd. 232, tert-butyl 3-{5-[({[2-(3,3-difluoropiperidin-1-yl)phenyl](phenyl)methyl}carbamoyl)methyl]-1H-indol-3-yl}propanoate]: the IC50 is below 1000 nM.

Compound `CC(C)(C)OC(=O)NC(=N)NC(=O)CCc1c[nH]c2ccc(CC(=O)NC(c3ccccc3)c3ccccc3N3CCCCC3)cc12` (centres unmarked) [Cpd. 234, tert-butyl N-[(3-{5-[({phenyl[2-(piperidin-1-yl)phenyl]methyl}carbamoyl)methyl]-1H-indol-3-yl}propanamido)methanimidoyl]carbamate] came in with an IC50 of 1000 to 10000 nM.

As to `CCOC(=O)CCc1n[nH]c2ccc(CC(=O)NC(c3ccccc3)c3ccccc3N3CCCCC3)cc12` (centres unmarked) [Cpd. 236, ethyl 3-{5-[({phenyl[2-(piperidin-1-yl)phenyl]methyl}carbamoyl)methyl]-1H-indazol-3-yl}propanoate], the IC50 is below 1000 nM.

For `COC(=O)Cc1c[nH]c2ccc(CC(=O)NC(c3ccccc3)c3cccc(N4CCCCC4)c3)cc12` (centres unmarked) [Cpd. 238, methyl 2-{5-[({phenyl[3-(piperidin-1-yl)phenyl]methyl}carbamoyl)methyl]-1H-indol-3-yl}acetate], the IC50 was in the range of 1000 to 10000 nM.
